Entries after “also recorded” stand apart in the source; their conditions may differ.
Legend:
[1] = tested on: breast, colorectal and pancreatic cancer cell lines; experiment: Cell counting in complete or cysteine-free medium, cell lines not given; type: cell-based; details: supplementation during cysteine starvation
Description: The base medium formulation contained 0.2 mM L-histidine, 0.4 mM L-isoleucine, 0.4 mM L-leucine, 0.4 mM L-lysine, 0.2 mM L-phenylalanine, 0.4 mM L-threonine, 0.08 mM L-tryptophan, 0.4 mM L-valine, 0.2 mM L-arginine, 2 mM L-glutamine, 0.2 mM L-tyrosine, 0.4 mM L-alanine, 0.3 mM L-proline, 0.15 mM L-glutamic acid, 0.1 mM L-aspartic acid, 0.2 mM L-asparagine, and 0.4 mM glycine.
DAPI-stained cell nuclei were detected via microscopy.
AMD1 inhibitor sardomozide/SAM486A, GPX4 inhibitor RSL3, and CSE inhibitor beta-cyano-L-alanine were used.
For experiments using spermine oxidase (SMOX) and polyamine oxidase (PAOX) inhibitors or MTOB, cells were pre-treated with stated concentrations for 16 hours in complete medium. After pre-treatment, cells were washed in PBS, and treatment was continued in complete or cysteine-free medium for stated times. After treatment was finished, cells were fixed and stained as described above. For experiments using MTA, polyamines, GPX4 and CSE inhibitors, treatment started at the same time as cysteine starvation. For experiments involving hypoxic conditions, cells were seeded in normoxic conditions and allowed to adhere for 24 hours before control and cysteine starvation medium was added and cells were immediately transferred either to a humidified cell culture incubator set to 37° C. in 20% O2 (normoxia), or a hypoxia chamber set to 37° C. in 1% O2 (hypoxia) for the stated times. Cells were fixed immediately and stained as described above.

[2] = tested on: SW480 and MDA-MB-231 cells; experiment: Cell counting, rescue by cysteine precursors during cysteine starvation; type: cell-based
Description: (§1) HCT116, SW480, MDA-MB-468, MDA-MB-231, AsPC-1, BxPC-3, CFPAC-1, MIAPaCa-2, PANC-1, Panc10.05, SW1990, U-251, LN-18, LN-229, T98G, U-343, A-172 cells were used. Cell lines were authenticated using Short Tandem Repeat (STR) profiling and tested for mycoplasma. Colorectal and breast cancer cell lines were grown in Dulbecco's Modified Eagle Medium (DMEM), pancreatic ductal adenocarcinoma (PDAC) cell lines were grown in Roswell Park Memorial institute (RPMI) 1640. All cell lines were supplemented with penicillin-streptomycin, amphotericin, 2 mM L-glutamine, and 10% fetal bovine serum (FBS). Cells were kept at 37° C. in 5% CO2 in a humidified cell culture incubator. A formulated medium lacking cysteine, cystine, methionine, and serine was used as a base for creating experimental media. The base medium formulation contained 0.2 mM L-histidine, 0.4 mM L-isoleucine, 0.4 mM L-leucine, 0.4 mM L-lysine, 0.2 mM L-phenylalanine, 0.4 mM L-threonine, 0.08 mM L-tryptophan, 0.4 mM L-valine, 0.2 mM L-arginine, 2 mM L-glutamine, 0.2 mM L-tyrosine, 0.4 mM L-alanine, 0.3 mM L-proline, 0.15 mM L-glutamic acid, 0.1 mM L-aspartic acid, 0.2 mM L-asparagine, and 0.4 mM glycine. The base medium was supplemented with 10% dialyzed FBS, penicillin-streptomycin, and amphotericin. To ensure an adequate supply of vitamin B6 (a crucial co-factor for de novo cysteine synthesis), base medium was supplemented with additional 20 μM vitamin B6. The control experimental medium was the base medium supplemented with 0.4 mM L-cysteine, 0.2 mM L-methionine, and 0.4 mM L-serine. The cysteine starvation (−Cys) experimental medium was base medium supplemented with 0.2 mM L-methionine and 0.4 mM L-serine.
Cells were seeded at 6×10^4 cells per well into 24-well plates (triplicate wells per condition) in the relevant complete medium and adhered for a full 24-hour period. A ‘time-0’ plate was included to record the starting cell number to calculate relative cell numbers. Cells were washed once with phosphate-buffered saline (PBS) before receiving experimental medium containing or lacking the specified amino acids, metabolites, or drugs. At the stated time-points the medium was removed, cells were fixed in a 4% formalin-PBS solution. Cells were then washed and stored in PBS before staining with 4′,6-diamidino-2-phenylindole (DAPI)-Triton™ X100-PBS solution for 1 hour, followed by storage in PBS at 4° C. until further analysis. DAPI-stained cell nuclei were detected via microscopy.
Homocysteine, cystathionine, glutathione, putrescine, spermine, spermidine, GPX4 inhibitor ML210, SMOX inhibitor MDL 72527, PAOX inhibitor diminazene aceturate, ferrostatin-1 and erastin were used. AMD1 inhibitor sardomozide/SAM486A, GPX4 inhibitor RSL3, and CSE inhibitor beta-cyano-L-alanine were used. […]

[3] = tested on: MDA-MB-231 cells; experiment: Steady state metabolite measurements by LC-MS; type: cell-based
Description: Metabolomics experiments were performed as follows. Cells were seeded into 6-well plates (5×10^5-1.5×10^6 cells/mL, depending on time-course, triplicate wells per condition) in complete medium and adhered overnight. Cells were washed with PBS, and the relevant experimental media were added for the stated times. Duplicate wells were used for cell counting. Cell counts were used to normalize the volume of lysis solvent prior to metabolite extractions (2×10^6 cells/mL). Cells were washed quickly in PBS, then ice-cold lysis solvent (methanol 50%, acetonitrile 30%, water 20%) was added, and cells were scraped on ice. Lysates were transferred to 1.5 mL tubes on ice, vortexed, then spun by centrifugation at 15,000 rpm at 4° C. for 10 minutes. Supernatants were collected and stored at -80° C. for LC-MS analysis. Prepared samples were analyzed on an LC-MS platform consisting of an […] system and an ExactiveTM mass spectrometer. A Sequant® ZIC®-HILIC column (4.6 mm×150 mm, 3.5 μm) was used to separate the metabolites with the mobile phase using A=0.1% (v/v) formic acid in water and B=0.1% (v/v) formic acid in acetonitrile. A gradient program starting at 20% of A and linearly increasing to 80% at 30 min was used followed by washing (92% of A for 5 mins) and re-equilibration (20% of A for 10 min) steps. The total run time of the method was 45 min. The LC stream was desolvated and ionized in the HESI probe. The ExactiveTM mass spectrometer was operated in full scan mode over a mass range of 70-1,200 m/z at a resolution of 50,000 with polarity switching. The LC-MS raw data was converted into mzML files by using ProteoWizard and imported to MZMine 2.10 for peak extraction and sample alignment. An in-house database including all possible ^13C and ^15N isotopic m/z values of the relevant metabolites was used for the assignment of LCMS signals. Finally the peak areas were used for comparative quantification.

[4] = tested on: HCT116, SW480, MDA-MB-231 and MDA-MB-468 cells; experiment: Western blot of transsulfuration pathway enzyme expression; type: cell-based; details: medium lacking cysteine with 0.8 mM homocysteine, 24 hr
Excerpt: Protein was extracted from whole cells by lysis in RIPA buffer supplemented with a protease and […] cocktail. Lysates were cleared using centrifugation, resolved on 4-12% bis-tris pre-cast gels, and transferred to nitrocellulose membranes. Primary antibodies used were MTAP, AMD1, ODC1, GPX4, AHCY, CBS, CSE, and actin as a loading control on the same blots. Secondary antibodies used were IRDye800CW anti-mouse, IRDye680RD anti-mouse, IRDye800CW anti-rabbit, and IRDye680RD anti-rabbit. Protein bands were detected and quantified using an infrared scanner and imaging software.

[5] = tested on: HCT116, SW480, MDA-MB-231, and MIAPaCa-2 cells; details: exogenous GSH 5 mM
Description: as §1, with “The base medium was supplemented with 10% dialyzed FBS, penicillin-streptomycin, and amphotericin. To ensure an adequate supply of vitamin B6 (a crucial co-factor for de novo cysteine synthesis), base medium was supplemented with additional 20 μM vitamin B6. The control experimental medium was the base medium supplemented with 0.4 mM L-cysteine, 0.2 mM L-methionine, and 0.4 mM L-serine. The cysteine starvation (−Cys) experimental medium was base medium supplemented with 0.2 mM L-methionine and 0.4 mM L-serine.” left out
Cells were seeded at 6×10^4 cells per well into 24-well plates (triplicate wells per condition) in the relevant complete medium and adhered for a full 24-hour period. […] DAPI-stained cell nuclei were detected via microscopy. […]

[6] = medium lacking cysteine, supplement 0.2 mM
[7] = medium lacking cysteine with 5 mM glutathione

Row | Structure (SMILES) | rescue from cysteine starvation-induced cell death (summary in discussion) [1] | rescue of survival/proliferation during cysteine starvation ([2]; supplement at 0.2 mM) | restoration of proliferation during cysteine starvation ([2]; supplement at 0.8 mM) | intracellular cysteine levels [3, 6] | intracellular homocysteine and cystathionine levels [3, 6] | intracellular γ-glutamylcysteine and GSH levels [3, 6] | intracellular cysteine levels ([3]; medium lacking cysteine, supplement 0.8 mM, 8 h) | transsulfuration pathway enzyme expression beyond starvation alone [4] | cell death and proliferation during cysteine starvation [5] | intracellular GSH levels [3, 7] | intracellular cysteine and γ-glutamylcysteine levels [3, 7]
1 | N[C@@H](CCS)C(=O)O [homocysteine] | rescued from starvation-induced cell death; also recorded: able to rescue cells from cysteine starvation | substantial rescue | further able to restore proliferation; also recorded: restored proliferation and increased cell survival | moderate increases | significantly increased | more marked increases | significant increase | little impact |  |  | 
2 | N[C@@H](CCC(=O)N[C@@H](CS)C(=O)NCC(=O)O)C(=O)O [GSH, glutathione] |  |  |  |  |  |  |  |  | prevented cell death and restored proliferation | fully restored | partial rescue

— patent US12109184B2, “Personalized methods of treating cancer” (CANCER RESEARCH TECHNOLOGY LIMITED, priority 2020, dated 2024)
